Reference: patent US9365588B2, “Benzoxazines as modulators of ion channels” (Vertex Pharmaceuticals Incorporated, priority 2011, dated 2016)

Target: human NaV 1.7 (Homo sapiens, UniProt Q15858)
Test: E-VIPR optical membrane potential assay with electrical stimulation
Type: cell-based
Conditions: sodium channel inhibition; read-out: Binned Activity Data (IC50)
In short: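 Membrane-potential read-out: background-subtracted 460 nm/580 nm ratio during a 9 s current-controlled stimulus, 400 Hz scan. Before stimulation, NaV1.7-HEK cells carried coumarin/oxonol dye and compound (final DMSO 0.625%) for 20–35 min at room temperature; tetracaine 125 μM served as positive control.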

Chain of human NaV 1.7 (Q15858 whole entry): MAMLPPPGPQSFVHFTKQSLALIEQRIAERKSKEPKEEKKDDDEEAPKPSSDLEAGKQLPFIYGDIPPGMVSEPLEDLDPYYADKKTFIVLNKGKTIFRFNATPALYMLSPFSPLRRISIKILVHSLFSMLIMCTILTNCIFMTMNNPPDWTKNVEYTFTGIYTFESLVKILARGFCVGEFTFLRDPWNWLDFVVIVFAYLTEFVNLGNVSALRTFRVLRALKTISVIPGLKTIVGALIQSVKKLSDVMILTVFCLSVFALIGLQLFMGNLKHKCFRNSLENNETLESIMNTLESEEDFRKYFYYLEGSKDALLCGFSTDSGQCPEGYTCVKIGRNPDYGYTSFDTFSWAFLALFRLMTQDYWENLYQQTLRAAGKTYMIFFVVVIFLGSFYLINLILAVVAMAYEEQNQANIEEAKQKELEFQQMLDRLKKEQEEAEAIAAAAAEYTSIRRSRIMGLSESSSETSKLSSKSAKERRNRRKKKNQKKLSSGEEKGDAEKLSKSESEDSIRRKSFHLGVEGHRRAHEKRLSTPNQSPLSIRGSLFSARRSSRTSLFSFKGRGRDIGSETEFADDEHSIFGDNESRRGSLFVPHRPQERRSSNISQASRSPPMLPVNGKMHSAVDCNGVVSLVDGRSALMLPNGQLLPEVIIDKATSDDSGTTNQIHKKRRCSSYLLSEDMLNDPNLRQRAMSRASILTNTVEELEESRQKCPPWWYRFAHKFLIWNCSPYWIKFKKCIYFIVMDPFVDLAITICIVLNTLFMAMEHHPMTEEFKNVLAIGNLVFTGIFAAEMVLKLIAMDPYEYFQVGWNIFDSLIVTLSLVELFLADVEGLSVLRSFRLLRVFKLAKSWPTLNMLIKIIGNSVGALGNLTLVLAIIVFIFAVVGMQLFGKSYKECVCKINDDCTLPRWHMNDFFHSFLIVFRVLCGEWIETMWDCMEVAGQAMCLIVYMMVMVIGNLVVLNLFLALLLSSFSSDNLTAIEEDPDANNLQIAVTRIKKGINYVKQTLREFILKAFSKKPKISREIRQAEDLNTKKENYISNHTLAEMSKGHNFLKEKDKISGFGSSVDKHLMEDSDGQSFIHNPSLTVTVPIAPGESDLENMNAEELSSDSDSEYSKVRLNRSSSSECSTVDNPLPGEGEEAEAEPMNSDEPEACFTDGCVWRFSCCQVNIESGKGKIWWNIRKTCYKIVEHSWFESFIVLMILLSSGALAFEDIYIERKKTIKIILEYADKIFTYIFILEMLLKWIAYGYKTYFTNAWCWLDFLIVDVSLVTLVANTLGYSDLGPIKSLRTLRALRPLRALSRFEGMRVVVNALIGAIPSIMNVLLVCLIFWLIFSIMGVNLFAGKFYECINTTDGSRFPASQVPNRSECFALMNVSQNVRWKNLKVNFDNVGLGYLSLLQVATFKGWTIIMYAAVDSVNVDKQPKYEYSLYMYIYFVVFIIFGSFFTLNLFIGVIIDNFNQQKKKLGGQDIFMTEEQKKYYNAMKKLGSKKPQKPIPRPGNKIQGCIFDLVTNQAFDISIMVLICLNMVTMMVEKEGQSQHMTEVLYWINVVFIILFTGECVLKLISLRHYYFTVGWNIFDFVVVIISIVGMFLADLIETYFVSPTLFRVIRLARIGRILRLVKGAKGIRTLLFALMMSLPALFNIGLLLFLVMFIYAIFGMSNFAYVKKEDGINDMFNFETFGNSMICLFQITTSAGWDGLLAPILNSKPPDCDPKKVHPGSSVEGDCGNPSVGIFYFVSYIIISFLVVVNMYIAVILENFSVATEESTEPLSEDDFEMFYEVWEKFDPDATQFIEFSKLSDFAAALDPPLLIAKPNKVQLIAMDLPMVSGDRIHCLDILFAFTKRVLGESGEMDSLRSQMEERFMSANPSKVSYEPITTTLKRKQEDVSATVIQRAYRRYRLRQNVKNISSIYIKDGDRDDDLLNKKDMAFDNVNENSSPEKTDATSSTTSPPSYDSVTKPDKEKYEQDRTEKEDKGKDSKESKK

COc1cccc(F)c1C(=O)N1CCC2(CC1)Oc1ccccc1-n1c(C#N)ccc12 [Compound 519]
IC50: ≤ 2000 nM

CC[C@H](C)Oc1ccc(C(=O)N2CCC3(CC2)Oc2ccccc2-n2cccc23)cc1C(F)(F)F [Compound 126]
IC50: ≤ 2000 nM

CC1Oc2c(C(=O)N3CCC4(CC3)Oc3ccccc3-c3c4cnn3C)cccc2C1C (stereo not drawn) [Compound 56]
IC50: ≤ 2000 nM

COc1ccc(C(=O)N2CCC3(CC2)Oc2cc(Cl)ccc2-n2cccc23)c(C(F)(F)F)c1 [Compound 129]
IC50: ≤ 2000 nM

COc1ccccc1C(=O)N1CCC2(CC1)Oc1cc(Cl)ccc1-n1cccc12 [Compound 81]
IC50: ≤ 2000 nM

COc1cccc(OC)c1C(=O)N1CCC2(CC1)Oc1cc(Cl)ccc1-n1cccc12 [Compound 703]
IC50: ≤ 2000 nM

N#Cc1ccc2n1-c1ccccc1OC21CCN(C(=O)c2ccc(OC(F)F)cc2)CC1 [Compound 2]
IC50: > 5000 nM

Cn1ncc2c1-c1cc(Cl)ccc1OC21CCN(C(=O)c2ccccc2OC(F)F)CC1 [Compound 283]
IC50: ≤ 2000 nM

COc1cccc(F)c1C(=O)N1CCC2(CC1)Oc1cc(Cl)ccc1-n1cccc12 [Compound 739]
IC50: ≤ 2000 nM

CCc1ccc(C(=O)N2CCC3(CC2)Oc2cc(CN(C)C)ccc2-n2cccc23)cc1OC [Compound 454]
IC50: 2000 to 5000 nM

O=C(c1ccc2ncsc2c1)N1CCC2(CC1)Oc1ccccc1-n1c(C(F)(F)F)ccc12 [Compound 15]
IC50: > 5000 nM

Cc1cccc(C(=O)N2CCC3(CC2)Oc2ccccc2-c2c3cnn2C)c1OC(C)C [Compound 608]
IC50: ≤ 2000 nM

COc1ccc(C(=O)N2CCC3(CC2)Oc2ccccc2-n2c(C(F)(F)F)ccc23)cc1C [Compound 884]
IC50: ≤ 2000 nM

Cc1[nH]c2c(C(=O)N3CCC4(CC3)Oc3ccccc3-c3c4cnn3C)cccc2c1C [Compound 765]
IC50: ≤ 2000 nM

CCn1cccc(C(=O)N2CCC3(CC2)Oc2cc(Cl)ccc2-n2cccc23)c1=O [Compound 728]
IC50: ≤ 2000 nM

CCn1ncc2c1-c1ccccc1OC21CCN(C(=O)c2cccc(F)c2OC(F)F)CC1 [Compound 528]
IC50: ≤ 2000 nM

O=C(c1cc(Cl)cc(Cl)c1)N1CCC2(CC1)Oc1cc(Cl)ccc1-n1cccc12 [Compound 277]
IC50: ≤ 2000 nM

Cc1ccc(C(=O)N2CCC3(CC2)Oc2ccccc2-c2c3cnn2C)cc1C [Compound 701]
IC50: 2000 to 5000 nM

Cc1cc(C(=O)N2CCC3(CC2)Oc2ccccc2-c2c3cnn2C)ccc1S(=O)(=O)C(C)C [Compound 543]
IC50: ≤ 2000 nM

COc1ccc(C(=O)N2CCC3(CC2)Oc2ccccc2-c2c3cnn2C)cc1C [Compound 433]
IC50: ≤ 2000 nM

N#Cc1ccc2n1-c1ccccc1OC21CCN(C(=O)c2ccc(S(=O)(=O)C(F)F)cc2)CC1 [Compound 530]
IC50: ≤ 2000 nM

O=C(c1cccnc1Oc1ccccc1)N1CCC2(CC1)Oc1ccccc1-n1c(C(F)(F)F)ccc12 [Compound 330]
IC50: ≤ 2000 nM

COC[C@@H](C)Oc1ccc(C(=O)N2CCC3(CC2)Oc2cc(F)ccc2-n2cccc23)cc1OC [Compound 303]
IC50: ≤ 2000 nM

O=C(c1cccnc1Oc1ccc(F)cc1)N1CCC2(CC1)Oc1ccccc1-n1c(C(F)(F)F)ccc12 [Compound 472]
IC50: ≤ 2000 nM

CC(C)S(=O)(=O)c1ccc(C(=O)N2CCC3(CC2)Oc2cc(F)ccc2-c2c3cnn2C)cc1 [Compound 662]
IC50: 2000 to 5000 nM

CCn1ncc2c1-c1ccccc1OC21CCN(C(=O)c2ccc(S(C)(=O)=O)c(C)c2)CC1 [Compound 582]
IC50: ≤ 2000 nM

Cn1cc2c(n1)-c1ccccc1OC21CCN(C(=O)c2ccc(S(=O)(=O)NC(C)(C)C)cc2)CC1 [Compound 824]
IC50: ≤ 2000 nM

N#Cc1ccc2n1-c1ccccc1OC21CCN(C(=O)c2ccc(S(=O)(=O)NCCO)cc2)CC1 [Compound 17]
IC50: 2000 to 5000 nM

COc1cc(OC(C)(C)C#N)ccc1C(=O)N1CCC2(CC1)Oc1ccccc1-c1c2cnn1C [Compound 734]
IC50: ≤ 2000 nM

COc1ccc(C(=O)N2CCC3(CC2)Oc2cc(F)ccc2-n2c(C#N)ccc23)cc1C(F)(F)F [Compound 479]
IC50: > 5000 nM

COc1ccc2c(c1)-c1c(cnn1C)C1(CCN(C(=O)c3ccccc3OC)CC1)O2 [Compound 16]
IC50: ≤ 2000 nM

COc1ccc(Cl)cc1C(=O)N1CCC2(CC1)Oc1cc(Cl)ccc1-n1cccc12 [Compound 858]
IC50: ≤ 2000 nM

COc1cccc2[nH]cc(C(=O)N3CCC4(CC3)Oc3ccccc3-c3c4cnn3C)c12 [Compound 463]
IC50: ≤ 2000 nM

Cn1ncc2c1-c1ccccc1OC21CCN(C(=O)c2ccnc(N3CCCCC3)c2)CC1 [Compound 155]
IC50: ≤ 2000 nM

Cn1ncc2c1-c1ccccc1OC21CCN(C(=O)c2cccc3c2CC(C)(C)O3)CC1 [Compound 860]
IC50: ≤ 2000 nM

COc1cc(OC(F)(F)F)ccc1C(=O)N1CCC2(CC1)Oc1cc(Cl)ccc1-n1cccc12 [Compound 116]
IC50: ≤ 2000 nM

COc1cc(F)c(F)cc1C(=O)N1CCC2(CC1)Oc1ccccc1-c1c2cnn1C [Compound 127]
IC50: > 5000 nM

CCCOc1ccc(C(=O)N2CCC3(CC2)Oc2ccccc2-c2c3cnn2C)cc1OC [Compound 190]
IC50: ≤ 2000 nM

Cc1cc(C(C)(C)O)ccc1C(=O)N1CCC2(CC1)Oc1ccc(F)cc1-c1nn(C)cc12 [Compound 796]
IC50: ≤ 2000 nM

COc1cc(C(=O)N2CCC3(CC2)Oc2ccccc2-n2cccc23)ccc1OCC(N)=O [Compound 687]
IC50: ≤ 2000 nM

Cc1ccc(C(=O)N2CCC3(CC2)Oc2cc(Cl)ccc2-n2cccc23)cc1C [Compound 105]
IC50: ≤ 2000 nM

COc1ccc(F)cc1C(=O)N1CCC2(CC1)Oc1ccccc1-n1c(C#N)ccc12 [Compound 115]
IC50: ≤ 2000 nM

COc1ccc(C(=O)N2CCC3(CC2)Oc2ccccc2-c2c3cnn2C)cc1Cl [Compound 227]
IC50: 2000 to 5000 nM

Cn1cc2c(n1)-c1ccccc1OC21CCN(C(=O)c2ccc(C(C)(C)O)c(CO)c2)CC1 [Compound 425]
IC50: > 5000 nM

COc1cc(C(=O)N2CCC3(CC2)Oc2ccc(F)cc2-c2nn(C)cc23)ccc1OC(C)C [Compound 435]
IC50: ≤ 2000 nM

COCc1ccc2c(c1)OC1(CCN(C(=O)c3ccc(S(=O)(=O)C(C)C)cc3)CC1)c1ccc(C#N)n1-2 [Compound 832]
IC50: > 5000 nM

CS(=O)(=O)c1ccc2n1-c1ccccc1OC21CCN(C(=O)c2ccccc2OC(F)F)CC1 [Compound 195]
IC50: ≤ 2000 nM

COc1cc(Cl)cc(C(=O)N2CCC3(CC2)Oc2cc(Cl)ccc2-n2cccc23)c1 [Compound 29]
IC50: ≤ 2000 nM

CCn1ncc2c1-c1ccccc1OC21CCN(C(=O)c2ccc(OC(C)C)c(C)c2)CC1 [Compound 410]
IC50: ≤ 2000 nM

COCc1ccccc1C(=O)N1CCC2(CC1)Oc1ccccc1-c1c2cnn1C [Compound 219]
IC50: ≤ 2000 nM

CCCOc1ccc(C(=O)N2CCC3(CC2)Oc2cccnc2-n2cccc23)cc1C(F)(F)F [Compound 805]
IC50: ≤ 2000 nM

Cn1ncc2c1-c1ccccc1OC21CCN(C(=O)c2ccc(OC(C)(C)C)cc2)CC1 [Compound 28]
IC50: 2000 to 5000 nM

Cn1ncc2c1-c1ccccc1OC21CCN(C(=O)c2cccc3c2OCC3)CC1 [Compound 290]
IC50: ≤ 2000 nM

Cn1cc2c(n1)-c1ccccc1OC21CCN(C(=O)c2cccc(F)c2OC(F)F)CC1 [Compound 388]
IC50: ≤ 2000 nM

Cc1cc(C(=O)N2CCC3(CC2)Oc2ccccc2-n2ccc(C)c23)ccc1OC(C)C [Compound 315]
IC50: ≤ 2000 nM

Cn1ncc2c1-c1ccccc1OC21CCN(C(=O)c2ccc(OCCO)cc2)CC1 [Compound 496]
IC50: > 5000 nM

COc1ccccc1C(=O)N1CCC2(CC1)Oc1cc(F)ccc1-c1c2cnn1C [Compound 845]
IC50: ≤ 2000 nM
